Measurements as given in patent US20120222139A1, “Cancer Specific Mitotic Network” (THE REGENTS OF THE UNIVERSITY OF CALIFORNIA, priority 2009, published 2012).

Experiments:
Type in all cases: cell-based, human
[1] = system: sensitive (HCC38) or resistant (MDAMB175) breast cancer cell line; test: Treatment with mitotic apparatus inhibitors alone or in combination of two; settings: HCC38 (sensitive) and MDAMB175 (resistant), FIG. 8
Protocol: Dose response to GSK461364, GSK923295 and GSK1070916 was assayed individually or in combination in different breast cancer subtypes. FIG. 8A is a graph of response to single and combination doses of PLK1 and AURKB inhibitors; FIG. 8B is a graph of response to single and combination doses of PLK1 and CENPE inhibitors; and FIG. 8C is a graph of response to single and combination doses of CENPE and AURKB inhibitors.
In that case, combinations of mitotic apparatus inhibitors would not be expected to show additive or synergistic effects. We tested this by treatment of sensitive and resistant breast cancer cell lines with GSK461364 or GSK1070916 or GSK923295 alone and in combination two of them at different doses. […] That being the case, deployment of drugs targeting other genes in the mitotic apparatus network might contribute to development of a mitotic apparatus therapeutic armamentarium that could effectively counter development of drug resistance and provide durable treatments that will be effective against metastasis. Small molecular inhibitors have already been reported as under development for AURKA (MLN8054), CHEK2 (PD-321852). […] Work developing the mitotic network informs that inhibitors of these genes will be preferentially be effective in tumors with high MNAIs and are thus top candidates for drug development.
This was tested by treating a sensitive (HCC38) or resistant (MDAMB175) breast cancer cell line with GSK461364, GSK1070916 and GSK923295 either alone or in combination.

[2] = system: panel of 53 breast cancer cell lines; test: Cell viability/growth assay and dose response (GI50), CellTiter-Glo; settings: for GI50 values in cell lines with a high MNAI as compared to a low MNAI: breast cancer cell lines, FIG. 6; for effectiveness by breast cancer subtype: panel of 50 breast cancer cell lines that included both basal and luminal cell lines
Protocol: Human non-malignant and breast cancer cell lines, established from normal and human breast cancer samples, are publicly available and were used in the development of the mitotic network. The source of these cells includes nearly 55 well-characterized breast cell lines with genomic information (i.e. gene copy numbers of various genes) and gene expression data such as gene signatures characteristic of each cell line. Information that directs optimal incubation conditions are detailed in The cell incubational condition of the cell lines was shown reference (Neve, R. M. et al. Cancer Cell 10, 515-527 (2006).
The inhibitor compounds used were small molecule inhibitors. Theses small-molecule inhibitors for PLK1 (GSK461364), CENPE (GSK923295) and AURKB (GSK1070916) were provided by GlaxoSmithKline Inc. Stock solutions were made at a concentration of 10 mM in DMSO and stored at −20° C. Compounds were diluted (1:5 serial dilution), ranging between 0.0768 nM to 30 μM.
The cell viability and growth assay and dose response (GI50) experiments were conducted following dose-response curves that were determined according to the National Cancer Institute (NCI), National Institute of Health (NIH) guidelines. In brief, cell suspensions were plated into 96-well plates in 100 μl growth media. Inoculates were allowed a pre-incubation period of 24 hours at 37° C. for stabilization. Cells were treated with 9 doses in triplicates for 72 hours with GSK461364 or GSK1070916. Cell proliferation was measured with CellTiter-Glo® Luminescent Cell Viability Assay (Promega, Madison, Wis.). After subtraction of the baseline (the viability of the cells just before treatment, time 0), the absorbance was plotted. Total growth inhibition doses and 50% growth inhibition doses GI50 were calculated by GraphPad Prism4 software (GraphPad Software, Inc., La Jolla, Calif.).
Human non-malignant and breast cancer cell lines have been established from normal and human breast cancer samples. The cell lines described in this study derived from 49 malignant and 4 non-malignant breast tissues and growth conditions for the cell lines have been reported previously This resource consists of nearly 54 well-characterized breast cell lines with information on genomic and gene expression signatures. The cell incubational condition of the cell lines was shown previously by some of the inventors in Neve, R. M. et al. Cancer Cell 10, 515-527 (2006).
The small-molecule inhibitors for PLK1 (GSK461364), CENPE (GSK923295) and AURKB (GSK1070916) were provided by GlaxoSmithKline, Inc. Stock solutions were made at a concentration of 10 mM in DMSO and stored at −20° C. Compounds were diluted (1:5 serial dilution) to produce test drug concentrations ranging from 0.0768 nM to 30 μM.
Dose-response curves were determined according to the National Cancer Institute NIH guidelines. In brief, cell suspensions were aliquoted into 96-well plates in 100 μl growth media. Inoculates were allowed a preincubation period of 24 hours at 37° C. for stabilization. Cells were treated with 9 doses in triplicate for 72 hours with GSK461364 or GSK1070916. Cell proliferation was measured with CellTiter-Glo® Luminescent Cell Viability Assay (Promega, Madison. WI). After subtraction of the baseline (an estimate of the number of the cells just before treatment, time 0), the absorbance was plotted. Total growth inhibition doses and 50% growth inhibition doses GI50 were calculated by GraphPad Prism4 software (GraphPad Software, Inc., La Jolla, Calif.).
The correlation among the cellular GI50 values of GSK461364, GSK1070916 and GSK92325 was examined by Pearson correlation test. Tumor expression profiles were clustered using the mitotic network genes. Kaplan-Meier survival curves were generated for patients stratified into groups of high (upper tertile) and low (lower tertile) MNAI to evaluate differences in disease-free survival (DFS). […]

[3] = system: MDAMB231 breast cancer cells; test: Radiation sensitivity, high content imaging of cell number and apoptotic cells; settings: MDAMB231, 72 hours after X-ray radiation, FIG. 20f
Protocol: MDAMD231 cells are more sensitive to radiation treatment than T47D cells. […] There are more apoptosis in MDAMB231 cells than T47D cells. […] BT20 cells are more sensitive to radiation treatment than MCF10A cells. […] There are more apoptosis in BT20 cells than MCF10A cells.
High content imaging to assess cell number and apoptotic cells. The effects on cell growth and apoptosis were assessed by a Cellomics high-content image screening system (Cellomics, Thermo Fisher Scientific Inc., Pittsburgh, Pa., USA) after breast cancer cells exposed to a single dose of 0 (sham), 1, 2, 4, 6, 8 or 10 Gy X-ray radiation emitted from an irradiator (model 43855F, Faxitron X-ray Corporation, Lincolnshire, Ill., USA). Live cells in 96 well plates with six replicates from each treatment were stained with 1 μmol/L YO-PRO-1 positive cells.
Seventy-two hours after radiation, we measured cell growth and apoptosis using high-content image analysis. […] Similar results were found in additional cell lines BT20 with high levels of HJURP and MCF10A with low levels of HJURP (FIG. 20c, d). Finally we designed […] (shRNA) against HJURP and generated stable transfectants in a human breast cancer cell line (MDAMB231).

cells with HJURP shRNA = test: Growth of cells with HJURP shRNA (data not shown)
[4] = system: HJURP protein in MDAMB231; test: HJURP protein level by Western blot after HJURP shRNA; settings: stable transfectants in MDAMB231, Western blotting, FIG. 20e
Protocol: For Western blots, […] of protein extracts per lane were electrophoresed with denaturing sodium doedecyl sulfate (SDS)-polyacrylamide gels (4% to 12%), transferred to PVDF membranes (Millipore, Temecula, Calif., USA), and incubated with HJURP antibody 1:500 (Rabbit, HPA008436, Sigma-Aldrich, St. Louis, Mo., USA) and actin (goat, sc-1616, Santa Cruz Biotechnology, Santa Cruz, Calif., USA) diluted with blocking buffer (927-40000, LI-COR Biosciences, Lincoln, Nebr., USA) The membranes were washed four times with TBST and treated with 1:10,000 dilution of Alex Fluor 680 donkey anti-rabbit (A10043 Invitrogen, Carlsbad, Calif., USA) and IRDye 800CW conjugated donkey anti-goat (611-731-127, Rockland, Gilbertsville, Pa., USA) to detect HJURP and actin respectively. The signals were detected by infrared imaging (LI-COR Biosciences, Lincoln, Nebr., USA). Images were recorded as TIFF files for quantification.
Protein levels were measured by quantifying infrared imaging recorded from labeled antibodies using Scion Image. For each protein, the blots were made for 7 sets of 11 cell lines, each set including the same pair (SKBR3 and MCF12A) to permit intensity normalization across sets. […]
Seventy-two hours after radiation, we measured cell growth and apoptosis using high-content image analysis. […]

CC(C)Oc1ccc(C(=O)N[C@H](CNC(=O)CN(C)C)Cc2ccc(-c3cn4cccc([C@H](C)O)c4n3)cc2)cc1Cl [GSK923295]
response to combination of compounds against two different mitotic apparatus proteins versus alone [1]: did not increase the response in either cell type | GI50 values in cell lines with a high MNAI as compared to a low MNAI [2]: significantly lower in cell lines with a high MNAI | effectiveness by breast cancer subtype [2]: most effective against basal cell breast cancer subtypes

CCn1cc(-c2ccnc3[nH]c(-c4cccc(CN(C)C)c4)cc23)c(-c2ccc(NC(=O)N(C)C)cc2)n1 [GSK1070916]
response to combination of compounds against two different mitotic apparatus proteins versus alone [1]: did not increase the response in either cell type | GI50 values in cell lines with a high MNAI as compared to a low MNAI [2]: significantly lower in cell lines with a high MNAI | effectiveness by breast cancer subtype [2]: most effective against basal cell breast cancer subtypes

C[C@@H](Oc1cc(-n2cnc3ccc(CN4CCN(C)CC4)cc32)sc1C(N)=O)c1ccccc1C(F)(F)F [GSK461364]
response to combination of compounds against two different mitotic apparatus proteins versus alone [1]: did not increase the response in either cell type | GI50 values in cell lines with a high MNAI as compared to a low MNAI [2]: significantly lower in cell lines with a high MNAI | effectiveness by breast cancer subtype [2]: most effective against basal cell breast cancer subtypes

B1: HJURP shRNA: shRNA against HJURP (SEQ ID NO: 56 and 57) cloned into pSUPER.retro.puro retroviral vector (nucleic acid)
sense: GATCCCCGAGCGATTCATCTTCATCATTCAAGAGATGATGAAGATGAATCGCTCTTTTTGGAA
antisense: AGCTTTTCCAAAAAGAGCGATTCATCTTCATCATCTCTTGAATGATGAAGATGAATCGCTCGGG
sensitivity to radiation [3]: reduced the sensitivity to radiation | cell growth (cells with HJURP shRNA): grew slowly | down-regulation of HJURP protein levels [4]: 75%
